From patent US7238697B2, “Pyridylpyrimidines for use as pesticides” (Bayer CropScience AG, priority 2001, dated 2007)

Test system: peach aphids (Myzus persicae)
Assay: Myzus test (cabbage leaves dipped)
Type: in vivo
Conditions: 144 h, 100 ppm, after 6 d, solvent 30 parts DMF, emulsifier 1 part (Table D-1), read-out: Kill rate in % after 6 d
Description: To produce a suitable preparation of active compound, 1 part by weight of active compound is mixed with the stated amounts of solvent and emulsifier, and the concentrate is diluted with emulsifier-containing water to the desired concentration. Cabbage leaves (Brassica oleracea) which are heavily infested by peach aphids (Myzus persicae) are treated by being dipped into the preparation of the active compound of the desired concentration. After the desired period of time, the kill in % is determined. 100% means that all aphids have been killed; 0% means that none of the aphids has been killed.

Point of comparison: `COC(=O)C(Sc1nccc(-c2ccccn2)n1)C(=O)OC` [drawing 421], pest or weed control at 100 ppm 95%. Against it:
- COC(=O)CSc1nccc(-c2ccccn2)n1 [drawing 415] — higher, 100%

Same assay, conditions: 144 h, 200 ppm, after 6 d, solvent 30 parts DMF, emulsifier 1 part (Table D-1), read-out: Kill rate in % after 6 d

Molecule `COC(=O)CC(=O)CSc1nccc(-c2ccccn2)n1` [drawing 427] has a pest or weed control at 200 ppm of 95%.

Same assay, conditions: 144 h, 500 ppm, after 6 d, solvent 7 parts DMF, emulsifier 2 parts (Table D-2), read-out: Kill rate in % after 6 d

Point of comparison: `CCC1(COC(=O)CSc2nccc(-c3ccccn3)n2)CCO1` (centres unmarked) [drawing 428], pest or weed control at 500 ppm 98%. Against it:
- CCOC(=O)C1CC1COC(=O)CSc1nccc(-c2ccccn2)n1 (centres unmarked) [drawing 429] — the same, 98%
- COCN(C)C(=O)COC(=O)CSc1nccc(-c2ccccn2)n1 [drawing 430] — the same, 98%
- O=C(CSc1nccc(-c2ccccn2)n1)OCC(F)=C(Cl)Cl [drawing 431] — higher, 100%
- O=C(CSc1nccc(-c2ccccn2)n1)OC1CS(=O)(=O)C1 [drawing 432] — higher, 100%
- CC(=O)NCC(C)OC(=O)CSc1nccc(-c2ccccn2)n1 (centres unmarked) [drawing 433] — lower, 95%
- CC(C)OC(=O)C(C)OC(=O)CSc1nccc(-c2ccccn2)n1 (centres unmarked) [drawing 434] — lower, 95%
- O=C(CSc1nccc(-c2ccccn2)n1)OC1CC(F)(F)C1(F)F (centres unmarked) [drawing 435] — higher, 100%
- O=C(CSc1nccc(-c2ccccn2)n1)OC1COC1 [drawing 436] — lower, 95%
- NC(=O)CCSc1nccc(-c2ccccn2)n1 [drawing 437] — lower, 80%
- CC(C)(C)SC(=O)CSc1nccc(-c2ccccn2)n1 [drawing 438] — lower, 95%

Same assay, conditions: 144 h, 1000 ppm, after 6 d, solvent 30 parts DMF, emulsifier 1 part (Table D-1), read-out: Kill rate in % after 6 d

Point of comparison: `CCCOC(=O)CSc1nccc(-c2ccccn2)n1` [drawing 417], pest or weed control at 1000 ppm 95%. Against it:
- CCOC(=O)CSc1nccc(-c2ccccn2)n1 [drawing 416] — higher, 100%
- CC(C)OC(=O)CSc1nccc(-c2ccccn2)n1 [drawing 418] — higher, 100%
- C=CCOC(=O)CSc1nccc(-c2ccccn2)n1 [drawing 419] — the same, 95%
- O=C(CSc1nccc(-c2ccccn2)n1)OC1CCCCC1 [drawing 420] — higher, 100%
- NC(=O)CSc1nccc(-c2ccccn2)n1 [drawing 422] — the same, 95%
- COC(=O)CCCSc1nccc(-c2ccccn2)n1 [drawing 423] — higher, 100%
- O=C(O)CSc1nccc(-c2ccccn2)n1 [drawing 424] — higher, 100%

Test system: not listed separately
Assay: log P determination by HPLC (reversed-phase C18), EEC Directive 79/831 Annex V.A8
Type: physicochemical
Conditions: reversed-phase C18 HPLC column; pH 2.3; HPLC, reversed-phase C 18, 43° C., 0.1% aqueous phosphoric acid/acetonitrile; read-out: log P (pH 2.3)
Description: The stated log P values were determined in accordance with EEC Directive 79/831 Annex V.A8 by HPLC (High Performance Liquid Chromatography) using a reversed-phase column, (C 18). Temperature: 43° C. Mobile phases for the determination in the acidic range: 0.1% aqueous phosphoric acid, acetonitrile; linear gradient from 10% acetonitrile to 90% acetonitrile. Calibration was carried out using unbranched alkan-2-ones (having 3 to 16 carbon atoms) with known logP values (determination of the logP values by the retention times using linear interpolation between two successive alkanones).

Point of comparison: `CC(C)(C)n1nnc(CSc2nccc(-c3ccccn3)n2)n1` [Example 302], chromatographic logP 2.69. Against it:
- O=C(CSc1nccc(-c2ccccn2)n1)OCC1CCC(=O)O1 (centres unmarked) [Example 206] — lower, 1.64
- O=C(CSc1nccc(-c2ccccn2)n1)OCC#CCCl [Example 207] — within 0.2 log units, 2.61
- O=C(CSc1nccc(-c2ccccn2)n1)OCCn1cncn1 [Example 209] — lower, 1.32
- O=C(CSc1nccc(-c2ccccn2)n1)OCCn1ccnn1 [Example 210] — lower, 1.42
- CC(C)(C)C1(COC(=O)CSc2nccc(-c3ccccn3)n2)COC1 [Example 211] — within 0.2 log units, 2.75
- CO/N=C/C(C)OC(=O)CSc1nccc(-c2ccccn2)n1 (centres unmarked) [Example 212] — lower, 2.13
- CNC(=O)NCCCOC(=O)CSc1nccc(-c2ccccn2)n1 [Example 213] — lower, 1.42
- C/C=N/OCCOC(=O)CSc1nccc(-c2ccccn2)n1 [Example 214] — lower, 2.13
- CC(C=C(Cl)Cl)OC(=O)CSc1nccc(-c2ccccn2)n1 (centres unmarked) [Example 215] — higher, 3.48
- CCC(=O)NCCCOC(=O)CSc1nccc(-c2ccccn2)n1 [Example 216] — lower, 2.04
- CN(C=O)CCOC(=O)CSc1nccc(-c2ccccn2)n1 [Example 217] — lower, 1.4
- CN1CCC(COC(=O)CSc2nccc(-c3ccccn3)n2)O1 (centres unmarked) [Example 220] — lower, 1.12
- O=C(CSc1nccc(-c2ccccn2)n1)OC1CC(F)(F)C1(F)F (centres unmarked) [Example 221] — higher, 3
- CCC1(COC(=O)CSc2nccc(-c3ccccn3)n2)COCOC1 [Example 222] — within 0.2 log units, 2.51
- C=CC(=O)OCCCOC(=O)CSc1nccc(-c2ccccn2)n1 [Example 224] — lower, 2.49
- COCN(C)C(=O)COC(=O)CSc1nccc(-c2ccccn2)n1 [Example 230] — lower, 1.96
- CCNC(=O)COC(=O)CSc1nccc(-c2ccccn2)n1 [Example 231] — lower, 1.97
- CON(C)C(=O)COC(=O)CSc1nccc(-c2ccccn2)n1 [Example 234] — lower, 1.97
- O=C(CSc1nccc(-c2ccccn2)n1)OCCOCC(F)(F)F [Example 236] — within 0.2 log units, 2.7
- CCOC(=O)C(OC(=O)CSc1nccc(-c2ccccn2)n1)C(C)C (centres unmarked) [Example 243] — higher, 3.2
- CC(C)NC(=O)OCCOC(=O)CSc1nccc(-c2ccccn2)n1 [Example 245] — lower, 2.19
- CC(=O)OC(C)C(C)OC(=O)CSc1nccc(-c2ccccn2)n1 (centres unmarked) [Example 246] — within 0.2 log units, 2.54
- CC(=O)O[C@H]1CCC[C@H]1OC(=O)CSc1nccc(-c2ccccn2)n1 [Example 248] — within 0.2 log units, 2.65
- O=C(CSc1nccc(-c2ccccn2)n1)OC1COC1 [Example 249] — lower, 1.69
- O=C(CSc1nccc(-c2ccccn2)n1)OCCc1noc(=O)[nH]1 [Example 250] — lower, 1.97
- Cc1noc(C)c1CCOC(=O)CSc1nccc(-c2ccccn2)n1 [Example 252] — lower, 2.25
- O=C(CSc1nccc(-c2ccccn2)n1)OCC(F)=C(Cl)Cl [Example 253] — higher, 3.19
- CCOC(=O)CSc1nccc(-c2ccc(CC)cn2)n1 [Example 254] — higher, 2.98
- CCOC(=O)CSc1nccc(-c2ccc(Cl)cn2)n1 [Example 256] — higher, 3.23
- CCOC(=O)CSc1nccc(-c2ccc(C(F)(F)F)cn2)n1 [Example 257] — higher, 3.48
- CCOC(=O)CSc1nccc(-c2cc(CC)ccn2)n1 [Example 259] — the same, 2.69
- CCOC(=O)CSc1nccc(-c2cc(OC)ccn2)n1 [Example 261] — lower, 1.62
- CCOC(=O)CSc1nccc(-c2cc(-c3ccccc3)ccn2)n1 [Example 262] — higher, 3.54
- CCOC(=O)CSc1nccc(-c2ncccc2C)n1 [Example 265] — lower, 1.85
- CCOC(=O)CSc1nccc(-c2ncccc2CC)n1 [Example 266] — lower, 2.22
- CCOC(=O)CSc1nccc(-c2ncccc2OC)n1 [Example 268] — lower, 1.34
- CCOC(=O)CSc1nccc(-c2ncccc2C(F)(F)F)n1 [Example 269] — within 0.2 log units, 2.53
- CCOC(=O)CSc1ncc(C)c(-c2ccccn2)n1 [Example 271] — lower, 2.18
- CCOC(=O)CSc1nccc(-c2ncccc2F)n1 [Example 281] — lower, 2.04
- CCOC(=O)CSc1nccc(-c2ccc3ccccc3n2)n1 [Example 296] — higher, 3.49
- CCOC(=O)CSc1nccc(-c2nccc3ccccc23)n1 [Example 298] — within 0.2 log units, 2.51
- c1ccc(-c2ccnc(SCc3nn[nH]n3)n2)nc1 [Example 299] — lower, 1.17
- Cn1nnc(CSc2nccc(-c3ccccn3)n2)n1 [Example 300] — lower, 1.59
- Cn1nnnc1CSc1nccc(-c2ccccn2)n1 [Example 301] — lower, 1.24
- CC1(CCCOC(=O)CSc2nccc(-c3ccccn3)n2)OCCO1 [Example 303] — within 0.2 log units, 2.57
- CCOC(=O)c1cc(NC(=O)NCCCOC(=O)CSc2nccc(-c3ccccn3)n2)ccc1Cl [Example 304] — higher, 5.37
- CCOC(=O)CSc1nccc(-c2ccc(Br)cn2)n1 [Example 305] — higher, 3.39
- CCOC(=O)CSc1nccc(-c2ccc([N+](=O)[O-])cn2)n1 [Example 306] — within 0.2 log units, 2.77
- CCOC(=O)CSc1nccc(-c2cccc(Br)n2)n1 [Example 307] — higher, 3.31
- O=C(CSc1nccc(-c2ccccn2)n1)Nc1cccc([N+](=O)[O-])c1 [Example 308] — lower, 2.25
- COC(=O)c1ccc(NC(=O)CSc2nccc(-c3ccccn3)n2)cc1 [Example 309] — lower, 2.16
- CCOC(=O)C(C)N(C)C(=O)CSc1nccc(-c2ccccn2)n1 (centres unmarked) [Example 310] — lower, 1.93
- CCOC(=O)/C=C(/CSc1nccc(-c2ccccn2)n1)OCC [Example 311] — higher, 3.39
- CC(C)(C)SC(=O)CSc1nccc(-c2ccccn2)n1 [Example 312] — higher, 3.61
- Cc1c(NC(=O)CSc2nccc(-c3ccccn3)n2)cccc1[N+](=O)[O-] [Example 313] — lower, 2.28
- NC(=O)CCSc1nccc(-c2ccccn2)n1 [Example 314] — lower, 0.96
- CCOC(=O)CN(CC)c1nccc(-c2ccccn2)n1 [Example 315] — lower, 2.13
- CCOC(=O)CSc1nccc(-c2cc(C(C)(C)C)ccn2)n1 [Example 316] — higher, 3.55
- CCOC(=O)CSc1nccc(-c2ccc(SC)cn2)n1 [Example 317] — lower, 1.68
- N#CCSc1nccc(-c2ccccn2)n1 [{[4-(2-pyridinyl)-2-pyrimidinyl]thio}acetonitrile] — lower, 1.68
